{
  "source": "patent US12714758B2",
  "about": "“DOTA-hapten compositions for anti-DOTA/anti-tumor antigen bispecific antibody pretargeted radioimmunotherapy” (Memorial Sloan Kettering Cancer Center, priority 2020, dated 2026)",
  "origin": "cited, not measured here",
  "tested_on": "GD2",
  "settings": "24 hours post-injection",
  "data": [
    {"substance": "^177Lu-S-2-(4-aminobenzyl)-1,4,7,10-tetraazacyclododecane tetraacetic acid chelate [^177Lu-DOTA-Bn]", "values": [
      {"measurement": "blood uptake", "result": "0.49±0.09", "unit": "% ID/g"},
      {"measurement": "kidney uptake", "result": "0.83±0.10", "unit": "% ID/g"},
      {"measurement": "tumor uptake", "setting": "average±SD, n=5", "result": "10.29±2.87", "unit": "% ID/g"}
    ]}
  ]
}
